From patent US6790869B2, “Resveratrol analogs for prevention of disease” (Rutgers, The State University of New Jersey, priority 1999, dated 2004)
pIC50: −log10 of the molar value. Read-outs that look alike come from different tables or passages of the source. Values belong to the compound of their own block, whether it stands above or below them.

Tests used:
[1] = tested on: W138 human diploid fibroblasts; experiment: Cell proliferation assay, viable cells counted by trypan blue dye exclusion; type: cell-based; parameters: key to Growth Rate in Cells Following Exposure to Resveratrol Analogs, W138 Cells: +: >60% growth inhibition; —: no effect or only slight inhibition observed; conditions: for Growth Rate in Cells Following Exposure to Resveratrol Analogs, W138 Cells: at the concentration in parentheses after the analog, 5 days in culture
Method: (§1) Initial tests examined the potential cancer preventive activity of the analogs. Resveratrol and its analogs were evaluated in W138 and SV40 transformed W138VA cells and in preneoplastic 184-B5/HER and neoplastic SK-BR-3 human mammary epithelial cells. Cell proliferation, apoptosis, and gene expression studies were conducted using standard methodologies.
(§2) W138 human diploid fibroblasts and cancerous SV40-transformed W138 cells (W138VA) were used in a cell proliferation assay. Growth rate and viability of these cells was determined following addition of each analog. Doses tested ranged from 50 ng to 300 μg per ml or 1 μM to 100 μM concentrations in culture media. Cell cultures were grown for 5 days in the presence of the various doses of analogs. Growth rate was measured by counting viable cells using the trypan blue dye exclusion method. Resveratrol inhibited cell growth at low concentrations, less than 10 μM. […] MR-1 was not active as an inhibitor of cell growth even at doses as high as 100 μM.

[2] = tested on: BRCA2 gene expression; experiment: Targeted gene assay by RT-PCR; type: cell-based, human; conditions: for effect on expression of BRCA2 gene: human cells, all time points examined
Method: (§3) Targeted gene assay was then performed using RT-PCR. Both normal (W138) and cancerous (W138VA) cells at resting phase (G0) were treated with 10-15% fetal bovine serum to initiate growth stimulation. Cells were then harvested at various time points during cell cycle progression. Total RNA was prepared from these cells according to standard RT-PCR methods. Paired gene specific primers were prepared and used including human glyceraldehyde-3-phosphate dehydrogenase HG3PDH), c-fos, c-myc, ornithine decarboxylase (ODC), proliferating cell nuclear antigen (PCNA), thymidine kinase (TK), cyclooxygenase 2 (COX2), BRCA1, BRCA2, p53, APC, MCC, pRb, cyclooxygenase 1 (COX1), bc12, and Bax. […] Expression of c-fos and c-myc, an early G1 event in normal W138 cells, were both deregulated in transformed W138VA cells. […] Similarly, treatment of cells, both normal and transformed, with either resveratrol or MR-3 had no effect on expression of ODC, PCNA, or TK genes (all cell cycle dependent genes).
(§4) Both BRCA1 and BRCA2 are breast cancer genes that together appear to be responsible for more than 60% of total hereditary breast cancers. Therefore, resveratrol and its analogs appear to modulate the breast cancer genes.

[3] = tested on: BRCA1 gene expression; experiment: Targeted gene assay by RT-PCR; type: cell-based, human; conditions: for effect on expression of BRCA1 gene: human cells, all time points examined
Method: as §3, §4

[4] = tested on: 184-B5/HER cells; experiment: Apoptosis assay, fluorescent labeling of fragmented DNA; type: cell-based, human
Text: (§5) The effect of the analogs on apoptosis was also examined. Apoptosis is characterized by nuclear DNA fragmentation that is mediated through a variety of signal transduction pathways. An assay was used that relies on fluorescent labeling of fragmented DNA.

[5] = tested on: SV40-transformed W138 cells (W138VA); experiment: Cell proliferation assay, viable cells counted by trypan blue dye exclusion; type: cell-based, human; parameters: key to Growth Rate in Cells Following Exposure to Resveratrol Analogs, W138VA Cells: +: >60% growth inhibition; —: no effect or only slight inhibition observed; conditions: for Growth Rate in Cells Following Exposure to Resveratrol Analogs, W138VA Cells: at the concentration in parentheses after the analog, 5 days in culture
Method: as §1, §2

[6] = tested on: human glyceraldehyde-3-phosphate dehydrogenase (HG3PDH) expression; experiment: Targeted gene assay by RT-PCR; type: cell-based; conditions: W138 and W138VA cells, serum-stimulated from G0
Method: as §3

[7] = tested on: W138 cells; experiment: Morphological changes in cells; type: cell-based, human; conditions: normal W138 cells
Text: (§6) In addition to inhibition of cell growth, treatment of W138 and W138VA cells with analogs led to morphological changes in the cells. Treatment of W138 cells with resveratrol and its analogs R-1 and R-3 led to elongation of normal W138 cells. Methoxy analogs such as MR-0 and MR-3 caused the flattening of W138 cells.

[8] = tested on: 184-B5/HER cells; experiment: Growth inhibition in 184-B5/HER cells; type: cell-based; conditions: Homo sapiens
Method: as §1
(§7) Resveratrol and its analogs were also tested in 184-B5/HER cells.

[9] = tested on: W138 and W138VA cells; experiment: Cell proliferation assay, result not separated by cell line; type: cell-based, human; conditions: for effective concentration for growth inhibition: value in parentheses in Table 1, W138 / W138VA cells, 5 days
Method: as §1, §2

[10] = tested on: 184-B5/HER cells; experiment: Anchorage-dependent colony formation assay; type: cell-based; conditions: Homo sapiens
Text: Cell colony formation was also examined in 184-B5/HER cells. […] Resveratrol, MR-0 and MR-2 produced approximately 25-40% inhibition in the anchorage-dependent colony formation assay. MR-3, however, produced almost a 80% inhibition of colony formation.

[11] = tested on: c-fos expression; experiment: Targeted gene assay by RT-PCR; type: cell-based, human; conditions: W138 and W138VA cells, serum-stimulated from G0
Method: as §3

[12] = tested on: c-myc expression; experiment: Targeted gene assay by RT-PCR; type: cell-based, human; conditions: W138 and W138VA cells, serum-stimulated from G0
Method: as §3

[13] = tested on: proliferating cell nuclear antigen (PCNA) gene expression; experiment: Targeted gene assay by RT-PCR; type: cell-based, human; conditions: both normal and transformed cells
Method: as §3

[14] = tested on: thymidine kinase (TK) gene expression; experiment: Targeted gene assay by RT-PCR; type: cell-based, human; conditions: both normal and transformed cells
Method: as §3

[15] = tested on: ornithine decarboxylase (ODC) gene expression; experiment: Targeted gene assay by RT-PCR; type: cell-based, human; conditions: both normal and transformed cells
Method: as §3

[16] = tested on: 184-B5/HER cells; experiment: Cell cycle analysis; type: cell-based, human
Method: as §7

[17] = tested on: W138VA cells; experiment: Apoptosis assay, fluorescent labeling of fragmented DNA; type: cell-based, human
Text: as §5

[18] = tested on: W138 cells; experiment: as above; type: cell-based, human
Text: as §5

[19] = tested on: neutral β-galactosidase activity in W138 cells; experiment: Neutral β-galactosidase staining (senescence marker); type: cell-based, human; conditions: accompanying flattening
Text: as §6

[20] = tested on: oncogene expression preneoplastic breast epithelial cells; experiment: In vivo tumor inhibition in an orthotransplant model; conditions: mice, AIN-76A diet with 400 ppm
Method: The in vivo tumor inhibitory effects of MR-3 were tested in an orthotransplant model. Mice were transplanted with an oncogene expression preneoplastic breast epithelial cells. Mice were then divided into groups with the control group fed AIN-76A diet alone. Another group of mice was fed AIN-76A diet supplemented with 400 ppm MR-3.

[21] = tested on: cyclooxygenase 2 (COX2) expression; experiment: Targeted gene assay by RT-PCR; type: cell-based, human
Method: as §3

[22] = read-out: concentration that inhibited growth by 50% (IC50), 184-B5/HER cells
[23] = 184-B5/HER cells, continuous treatment with 4 μM, read-out: inhibition of colony formation

- effect on expression of HG3PDH [6]: did not affect the expression
SMILES: Oc1ccc(C=Cc2cc(O)cc(O)c2)cc1 [Resveratrol, 3,4′,5-trihydroxystilbene]
- Growth Rate in Cells Following Exposure to Resveratrol Analogs, W138 Cells [1]: +^2 (>60% growth inhibition)
- effect on expression of BRCA2 gene [2]: completely abolished expression
- effect on expression of BRCA1 gene [3]: completely abolished expression
- induction of apoptosis versus solvent-treated control cells [4]: induced apoptosis to a significantly greater extent than solvent-treated control cells
- Growth Rate in Cells Following Exposure to Resveratrol Analogs, W138VA Cells [5]: + (>60% growth inhibition)
- morphological change of cells [7]: elongation
- pIC50 [8, 22]: 4.98
- concentration at which cell growth was inhibited ([9]; 5 days in culture): less than 10 μM
- effective concentration for growth inhibition [9]: R0 (10 μM)^1
- inhibition at 4 µM [10, 23]: 25 to 40%
- effect on expression of c-fos [11]: did not significantly affect the expression
- effect on expression of c-myc [12]: did not significantly affect the expression
- effect on expression of PCNA gene [13]: no effect
- effect on expression of TK gene [14]: no effect
- effect on expression of ODC gene [15]: no effect

SMILES: COc1cc(C=Cc2cc(OC)c(OC)c(OC)c2)cc(OC)c1 [MR-5, 3,3′,4,5,5′-pentamethoxystilbene]
- Growth Rate in Cells Following Exposure to Resveratrol Analogs, W138 Cells [1]: + (>60% growth inhibition)
- Growth Rate in Cells Following Exposure to Resveratrol Analogs, W138VA Cells [5]: + (>60% growth inhibition)
- effective concentration for growth inhibition [9]: MR5 (100 μM)

SMILES: COc1cc(C=Cc2cc(OC)cc(OC)c2)cc(OC)c1 [MR-4, 3,3′,5′5′-tetramethoxystilbene]
- inhibition of growth ([1]; W138 cells, 100 μM): inhibited growth
- Growth Rate in Cells Following Exposure to Resveratrol Analogs, W138 Cells [1]: + (>60% growth inhibition)
- inhibition of growth ([5]; W138VA cells, 100 μM): not W138VA cells
- Growth Rate in Cells Following Exposure to Resveratrol Analogs, W138VA Cells [5]: —
- effective concentration for growth inhibition [9]: MR4 (100 μM)

SMILES: COc1cc(C=Cc2ccc(OC)c(OC)c2)cc(OC)c1 [MR-2, 3,3′,4,5′-tetramethoxystilbene]
- induction of apoptosis versus solvent-treated control cells [4]: induced apoptosis to a significantly greater extent than solvent-treated control cells
- pIC50 [8, 22]: 3.92
- inhibition at 4 µM [10, 23]: 25 to 40%
- cell cycle effect relative to solvent-treated control cultures [16]: progressive arrest of cell in the G2/M phase

SMILES: Oc1cc(O)cc(C=Cc2ccccc2)c1 [Analog R-1, 3,5-dihydroxystilbene]
- morphological change of cells [7]: elongation

SMILES: Oc1ccc(C=Cc2cc(O)c(O)c(O)c2)cc1 [Analog R-3, 3,4,4′,5-tetrahydroxystilbene]
- Growth Rate in Cells Following Exposure to Resveratrol Analogs, W138 Cells [1]: + (>60% growth inhibition)
- induction of apoptosis [17]: induced apoptosis
- induction of apoptosis [18]: not in W138 cells
- Growth Rate in Cells Following Exposure to Resveratrol Analogs, W138VA Cells [5]: + (>60% growth inhibition)
- morphological change of cells [7]: elongation
- fold less effective than resveratrol in inhibiting cell growth ([9]; relative to resveratrol): 10 fold
- effective concentration for growth inhibition [9]: R3 (10 μM)

SMILES: COc1cc(C=Cc2ccccc2)cc(OC)c1 [MR-1, 3,5-dimethoxystilbene]
- Growth Rate in Cells Following Exposure to Resveratrol Analogs, W138 Cells [1]: —^4
- Growth Rate in Cells Following Exposure to Resveratrol Analogs, W138VA Cells [5]: —
- activity as an inhibitor of cell growth ([9]; doses as high as 100 μM): not active
- effective concentration for growth inhibition [9]: MR1 (100 μM)

SMILES: COc1ccc(C=Cc2cc(OC)cc(OC)c2)cc1 [MR-0, 3,4′,5-trimethoxystilbene]
- ability to inhibit cell growth compared with resveratrol ([1]; W138 cells): less effective than resveratrol
- Growth Rate in Cells Following Exposure to Resveratrol Analogs, W138 Cells [1]: + (>60% growth inhibition)
- induction of apoptosis versus solvent-treated control cells [4]: induced apoptosis to a significantly greater extent than solvent-treated control cells
- ability to inhibit cell growth compared with resveratrol ([5]; W138VA cells): did not significantly affect
- Growth Rate in Cells Following Exposure to Resveratrol Analogs, W138VA Cells [5]: + (>60% growth inhibition)
- morphological change of cells [7]: flattening
- pIC50 [8, 22]: 4.98
- effective concentration for growth inhibition [9]: MR0 (100 μM)
- inhibition at 4 µM [10, 23]: 25 to 40%
- cell cycle effect relative to solvent-treated control cultures [16]: progressive arrest of cell in the G2/M phase
- neutral β-galactosidase activity (staining) [19]: increase in neutral β-galactosidase activity

SMILES: COc1ccc(C=Cc2cc(OC)c(OC)c(OC)c2)cc1 [MR-3, 3,4,4′,5-tetramethoxystilbene]
- effect on growth ([1]; W138 cells, 1 μM): no effect
- Growth Rate in Cells Following Exposure to Resveratrol Analogs, W138 Cells [1]: —
- potency in inhibiting expression of BRCA2 compared with resveratrol ([2]; at equal doses): more potent than resveratrol
- effect on expression of BRCA2 gene [2]: completely abolished expression
- potency in inhibiting expression of BRCA1 compared with resveratrol ([3]; at equal doses): more potent than resveratrol
- effect on expression of BRCA1 gene [3]: completely abolished expression
- induction of apoptosis versus solvent-treated control cells [4]: no effect
- effect on proliferation ([5]; W138VA cells, 1 μM): completely blocked proliferation
- Growth Rate in Cells Following Exposure to Resveratrol Analogs, W138VA Cells [5]: + (>60% growth inhibition)
- effect on expression of HG3PDH [6]: did not affect the expression
- morphological change of cells [7]: flattening
- weight gains compared with control group ([20]; 12 weeks): comparable
- tumor incidence ([20]; 12 weeks continuous feeding, control group 100%): 20%
- pIC50 ([8]; 184B5, read-out: concentration that inhibited growth by 50% (IC50)): 6.00
- rank in inhibiting cell growth among the methylated analogs [9]: most effective
- effective concentration for growth inhibition [9]: MR3 (1 μM)
- inhibition at 4 µM ([10]; 184B5, read-out: inhibition of colony formation): ~80%
- cell cycle effect relative to solvent-treated control cultures [16]: progressive arrest of cell in the G2/M phase
- rank in cell cycle arrest [16]: most effective compound
- neutral β-galactosidase activity (staining) [19]: increase in neutral β-galactosidase activity
- effect on expression of c-fos [11]: did not significantly affect the expression
- effect on expression of COX2 ([21]; W138VA cells): stimulated the expression
- effect on expression of COX2 ([21]; W138 cells): not in W138 cells
- effect on expression of c-myc [12]: did not significantly affect the expression
- effect on expression of PCNA gene [13]: no effect
- effect on expression of TK gene [14]: no effect
- effect on expression of ODC gene [15]: no effect
